Holding throughout (assay): growth of human tumour cells (NCI), 48 h
The subject of experiment [1] is A498 renal.
The subject of experiment [2] is CCRF-CEM leukemia.
For experiment [3], the system named is EKVX NSCLC.
Experiment [4] relates to IGROV1 ovarian.
In experiment [5] the test system is M14 melanoma.
The subject of experiment [6] is MALME-3M melanoma.
Experiment [7] has as its system MOLT-4 leukemia.
Experiment [8] has as its system NCI-H226 lung.
In experiment [9] the test system is NCI-H460 lung.
For experiment [10], the system named is NCI-H522 lung.
For experiment [11], the system named is OVCAR-4 ovarian.
Experiment [12] has as its system SF-539 CNS.
Experiment [13] relates to SK-MEL-5 melanoma.
The test system of experiment [14] is SNB-19 CNS.
For experiment [15], the system named is SNB-75 CNS.
Experiment [16] deals with SR leukemia.
For experiment [17], the system named is UACC-257 melanoma.
Experiment [18] concerns UO-31 renal.

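Five compound concentrations were applied to cells in 96-well plates for 48 hours; endpoints were derived by simple linear interpolation of the resulting dose-response curve. Definition used: TGI = concentration required for complete inhibition of growth.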 Some results are limits rather than exact numbers.

For `O=C1[C@@H]2C(c3ccccc3[N+](=O)[O-])=[N+](c3ccccc3)O[C@@H]2C(=O)N1c1ccc(Cc2ccc(N3C(=O)[C@H]4C(c5ccccc5[N+](=O)[O-])=[N+](c5ccccc5)O[C@H]4C3=O)cc2)cc1`, the TGI is greater than 100 µM in [1]; greater than 100 µM in [2]; greater than 100 µM in [3]; greater than 100 µM in [4]; 49.9 µM in experiment [5]; 81.6 µM in [6]. The TGI in experiment [7], in [8], in experiment [9], in experiment [10], in experiment [11] and in [12] was greater than 100 µM each time. For the same compound, the TGI in experiment [13], in [14], in experiment [15], in [16], in experiment [17] and in experiment [18] was greater than 100 µM each time.
Turning to `OCCCNc1ccnc2cc(Cl)ccc12`, the TGI in experiment [1], in experiment [2], in [3], in experiment [4], in experiment [5] and in experiment [6] was greater than 100 µM throughout. Also, the TGI in [7], in experiment [8], in experiment [9], in experiment [10], in experiment [11] and in experiment [12] was greater than 100 µM in each case. Further, the TGI in experiment [13], in experiment [14], in experiment [15], in experiment [16], in [17] and in [18] was greater than 100 µM throughout.
Consider `Cc1cc(C)n(-c2ccnc3cc(Cl)ccc23)n1`, for which the TGI in [1], in [2], in experiment [3], in experiment [4], in experiment [5] and in experiment [6] was greater than 100 µM each time. Further, the TGI in experiment [7], in experiment [8], in experiment [9], in experiment [11], in [12] and in experiment [13] was greater than 100 µM throughout. The TGI in experiment [14], in [15], in experiment [16], in experiment [17] and in experiment [18] was greater than 100 µM each time.
With `C(=N\Nc1ccccc1)/c1nc2ccccc2nc1/C=N/Nc1ccccc1`, the TGI was 31.1 µM in experiment [1]; greater than 100 µM in experiment [2]; greater than 78.6 µM in [3]; 21.5 µM in experiment [4]; 30 µM in experiment [5]; 41.6 µM in experiment [6]. Moreover, the TGI amounted to 79.8 µM in experiment [7]; 34.3 µM in [8]; 29 µM in experiment [9]; 35.9 µM in experiment [10]; 48.4 µM in [11]; 30.8 µM in [12]. Further, the TGI in experiment [13] was 35.4 µM; in [14], 35.4 µM; in experiment [15], 31.4 µM; in experiment [16], greater than 84.7 µM; in experiment [17], 58.2 µM; in experiment [18] it was greater than 84.6 µM.
With `Clc1ccc(CCn2cncn2)cc1`, the TGI in experiment [1], in [2], in [4], in experiment [5], in experiment [6] and in experiment [7] was greater than 100 µM throughout. For the same compound, the TGI in experiment [8], in [9], in [10], in experiment [11], in [12] and in experiment [13] was greater than 100 µM throughout. Also, the TGI in [15], in [16], in experiment [17] and in [18] was greater than 100 µM in each case.
Regarding `NC(=O)/C(=N\NC(=O)C[n+]1ccccc1)C1NC(=O)NC1=O` (centres undefined), the TGI in experiment [1], in [2], in [3], in experiment [4], in experiment [5] and in experiment [6] was greater than 100 µM in each case. The TGI in experiment [7], in experiment [8], in experiment [9], in [11], in experiment [12] and in [13] was greater than 100 µM in each case. For the same compound, the TGI in experiment [14], in [15], in experiment [16], in experiment [17] and in experiment [18] was greater than 100 µM in each case.
Regarding `N#CC1=C(c2ccccc2)C(=C2Nc3ccccc3N2)C2S/C(=C\c3ccccc3)C(=O)N2C1=N` (centres undefined), the TGI in experiment [1] is 7.73 µM; in [2], 6.66 µM; in experiment [3] it was 5.2 µM; in experiment [4], 4.71 µM; in [5], 6.56 µM; in experiment [6] it was 4.07 µM. Also, the TGI in experiment [7] is 7.79 µM; in experiment [8] it was 3.73 µM; in experiment [9], 10.2 µM; in [10], 3.52 µM; in experiment [11] it was 6.4 µM; in experiment [12], 3.35 µM. Also, the TGI was determined as 3.3 µM in experiment [13]; 11.7 µM in experiment [14]; 3.77 µM in experiment [15]; 4.87 µM in [16]; 15.7 µM in experiment [17]; 3.74 µM in experiment [18].
As to `CCOC(=O)C(C(=O)OCC)c1ccc([N+](=O)[O-])o1`, the TGI in experiment [2] was greater than 22.8 µM; in experiment [3], 35.4 µM; in [4] it was 42.1 µM; in [5] it was 26.6 µM; in experiment [6], 17.6 µM; in [7], 19.8 µM. Besides, the TGI was 45.7 µM in experiment [8]; 44.9 µM in experiment [9]; 3.26 µM in [10]; 32.4 µM in experiment [11]; 35.9 µM in experiment [12]; 31.5 µM in [13]. Moreover, the TGI in experiment [14] is greater than 100 µM; in [15], 37.3 µM; in experiment [16], greater than 26.4 µM; in [17] it was 28.1 µM; in experiment [18] it was 29 µM.

For the origin of these results see PubChem BioAssay (NCI).
